Source: patent publication US20260232684A1, “FLT3 INHIBITORS AND METHODS OF USING THE SAME” (BIOVENTURES, LLC, priority 2023, published 2026)
Entries after “also recorded” stand apart in the source; their conditions may differ.

How the values were obtained:
FLT3 = FLT3 (Homo sapiens, UniProt P36888); test: Enzyme kinetic analysis (5-FAM microfluidic assay), FLT3; format: biochemical; conditions: variable ATP and inhibitor concentrations
Procedure: FIG. 14. Enzyme kinetic analysis of compound 1 and 2 against FLT3 and FLT3 D835Y. The 5-FAM labeled microfluidic assay was utilized and all the activities were measured using Caliper EZ Reader II with a 12-sipper chip. In the presence of variable concentrations of compound 1 or 2, phosphorylation activities of FLT3 and FLT3 D835Y were measured at different level of ATP within certain time durations.
To further assess putative binding modes of compounds 1 and 2, enzyme kinetic analyses were performed.

[1] = system: FLT3 phosphorylation in Molm14 F691L cells; test: Immunoblotting of phospho-FLT3 and downstream signaling, Molm14 F691L; format: cell-based, human; conditions: 2 hours, Western blot
Procedure: (§1) FIG. 1. Activity of compounds 1 and 2 against parental Molm14 cells harboring secondary kinase domain mutations associated with clinical resistance to active FLT3 TKIs. […] Each point represents the calculated IC50 from an independent experiment completed in triplicate. Cells were treated with inhibitor at increasing log doses (0.1 nM-10 μM) for 48 hours. Cell viability was analyzed through CellTiter GLO. […] Cells were exposed to increasing amounts of each drug for 2 hours. GAPDH1 represents loading control for phospho-ERK and ERK blots. GAPDH2 represents loading control for phosphor-STAT5, STAT5, phospho-S6 and S6. Each experiment was completed in triplicate. Representative images are shown.
(§2) Exponentially growing Molm-14 or Ba/F3 cells were plated with RPMI 1640+10% (vol/vol) FBS with the indicated amount of drug. Following 120 minute incubation at 37° C., cells were washed in PBS and lysed in HEPES lysis buffer supplemented with protease and phosphatase inhibitors and processed as previously described (39). Immunoblotting was performed using anti-phospho-tyrosine 4G10 antibody (Millipore Sigma) and anti-FLT3 antibody (Cell Signaling Technology) following immunoprecipitation with anti-FLT3 antibody from 500 μg of total protein. Immunoblotting of ERK, STAT5, S6 and GAPDH was performed with anti-phospho-ERK, anti-ERK, anti-phospho-STAT5, anti-STAT5, anti-phospho-S6, anti-S6 and anti-GAPDH antibody (Cell Signaling Technology)

[2] = system: FLT3 phosphorylation in Ba/F3 cells stably expressing FLT3-ITD in human plasma; test: Plasma inhibitory assay; format: cell-based; conditions: for inhibition of FLT3 in the presence of human plasma, in words: 120 minutes, same concentrations as comparators
Procedure: A pitfall of some prior FLT3 inhibitors has been poor pharmacokinetic profiles. The plasma inhibitory assay identifies one pharmacokinetic profile by evaluating the activity of drugs in the presence of human plasma proteins that can sequester inhibitors in clinical experience.
Plasma Inhibitory Assay was performed as previously described with modifications (40). Ba/F3 cells (7×10^6 cells) stably expressing FLT3-ITD were resuspended in 1 mL of RPMI 1640+10% FBS or human plasma from a healthy control. All samples were collected under the University of California, San Francisco institutional review board (IRB)-approved cell banking protocol (CC #112514). Informed consent was obtained in accordance with the Declaration of Helsinki. The appropriate amount of drug was added and incubated at 37° C. for 120 minutes. Following, cells were washed in PBS and lysed in HEPES lysis buffer supplemented with protease and phosphatase inhibitors and processed as previously described (40,41). Immunoblotting was performed using anti-phospho-FLT3 and anti-FLT3 antibody (Cell Signaling).

[3] = system: FLT3 phosphorylation in Molm14 D835Y cells; test: Immunoblotting of phospho-FLT3 and downstream signaling, Molm14 D835Y; format: cell-based, human; conditions: 2 hours, Western blot
Procedure: as §1, §2

[4] = system: MV-4-11 cells (FLT3-ITD-expressing); test: Cell viability assay (CellTiter GLO), MV-4-11; format: cell-based, human; conditions: MV-4-11, 48 hours
Procedure: (§3) FIG. 1. […] Cells were treated with inhibitor at increasing log doses (0.1 nM-10 μM) for 48 hours. Cell viability was analyzed through CellTiter GLO. […] Cells were exposed to increasing amounts of each drug for 2 hours. GAPDH1 represents loading control for phospho-ERK and ERK blots. GAPDH2 represents loading control for phosphor-STAT5, STAT5, phospho-S6 and S6. Each experiment was completed in triplicate. Representative images are shown.
(§4) MV-4-11 and parental Molm-14 cells were a gift from Dr. Scott Kogan (University of California, San Francisco). HL60 and K562 cell lines were obtained from Charles Sawyers. […] Stable Ba/F3 lines were generated by retroviral infection as previously described (5). All cell lines were tested to be mycoplasma free and human cell lines were authenticated through STR profiling completed at the University of California, Berkeley.
(§5) Each triplicate was either dosed with drug or DMSO vehicle control. Drug dosing was completed at log doses ranging from 0.1 nM-10 μM. Cell viability was assessed after 48 hours using CellTiter GLO (Promega). Viability values were normalized to the vehicle control average. Numerical IC50 values were calculated in GraphPad Prism 7.

Molm14 D835Y cells = test: Cell viability assay (CellTiter GLO), Molm14 D835Y; format: cell-based, human; conditions: 48 hours
Procedure: as §3
FIG. 5. […] Cells were dosed with inhibitor at increasing log doses (0.1 nM-10 μM) for 48 hours. Cell viability was analyzed through CellTiter GLO.
as §4, §5

[5] = system: FLT3 phosphorylation in parental Molm14 cells; test: Immunoblotting of phospho-FLT3 and downstream signaling, Molm14; format: cell-based, human; conditions: parental Molm14, 2 hours, Western blot
Procedure: as §1
as §2, with “Immunoblotting of ERK, STAT5, S6 and GAPDH was performed with anti-phospho-ERK, anti-ERK, anti-phospho-STAT5, anti-STAT5, anti-phospho-S6, anti-S6 and anti-GAPDH antibody (Cell Signaling Technology)” left out

[6] = system: Ba/F3 cells transduced with mutagenized FLT3-ITD; test: Saturation mutagenesis resistance selection (XL1-Red mutagenized FLT3-ITD); format: cell-based; conditions: Ba/F3 cells with FLT3-ITD mutant isoforms (FIG. 10)
From the text: FIG. 10. (A) Schematic depicting the saturation mutagenesis experimental design and the range of concentrations for compound 1 and compound 2 to select for resistant cells; (B) Population doublings of XL1-Red-mutagenized FLT3-ITD plasmid-transduced Ba/F3 cells in escalating concentrations of compound 1 and compound 2. Arrows indicate the timepoint of passage when a concentration of 0.1 million cells/mL was achieved; (C) Western blot analysis of lysates collected from transduced Ba/F3 cells cultured in (lane 1) vehicle; (lane 2) 120 nM of compound 1; (lane 3) 120n M of compound 2 (lane 4) Ba/F3 cells transduced with MSCVpuro; (lane M) size marker. […] Left table: identity of mutations detected at escalating concentrations of compounds 1 and 2. Right table: IC50 values of compounds 1 and 2 in Ba/F3 cells transformed to growth factor independence with FLT3-ITD and various mutant isoforms.
To determine if these compounds are potentially vulnerable to novel secondary mutations in FLT3-ITD, Ba/F3 cells were transduced with retrovirus generated using MSCVpuro/FLT3-ITD plasmid purified from the XL1-Red bacterial strain, which is deficient in DNA mismatch repair and introduces random point mutations. This assay has successfully identified point mutations for other FLT3 TKIs that were subsequently validated in samples obtained from patients with acquired resistance. […]

Sequence of FLT3 (P36888 27-993): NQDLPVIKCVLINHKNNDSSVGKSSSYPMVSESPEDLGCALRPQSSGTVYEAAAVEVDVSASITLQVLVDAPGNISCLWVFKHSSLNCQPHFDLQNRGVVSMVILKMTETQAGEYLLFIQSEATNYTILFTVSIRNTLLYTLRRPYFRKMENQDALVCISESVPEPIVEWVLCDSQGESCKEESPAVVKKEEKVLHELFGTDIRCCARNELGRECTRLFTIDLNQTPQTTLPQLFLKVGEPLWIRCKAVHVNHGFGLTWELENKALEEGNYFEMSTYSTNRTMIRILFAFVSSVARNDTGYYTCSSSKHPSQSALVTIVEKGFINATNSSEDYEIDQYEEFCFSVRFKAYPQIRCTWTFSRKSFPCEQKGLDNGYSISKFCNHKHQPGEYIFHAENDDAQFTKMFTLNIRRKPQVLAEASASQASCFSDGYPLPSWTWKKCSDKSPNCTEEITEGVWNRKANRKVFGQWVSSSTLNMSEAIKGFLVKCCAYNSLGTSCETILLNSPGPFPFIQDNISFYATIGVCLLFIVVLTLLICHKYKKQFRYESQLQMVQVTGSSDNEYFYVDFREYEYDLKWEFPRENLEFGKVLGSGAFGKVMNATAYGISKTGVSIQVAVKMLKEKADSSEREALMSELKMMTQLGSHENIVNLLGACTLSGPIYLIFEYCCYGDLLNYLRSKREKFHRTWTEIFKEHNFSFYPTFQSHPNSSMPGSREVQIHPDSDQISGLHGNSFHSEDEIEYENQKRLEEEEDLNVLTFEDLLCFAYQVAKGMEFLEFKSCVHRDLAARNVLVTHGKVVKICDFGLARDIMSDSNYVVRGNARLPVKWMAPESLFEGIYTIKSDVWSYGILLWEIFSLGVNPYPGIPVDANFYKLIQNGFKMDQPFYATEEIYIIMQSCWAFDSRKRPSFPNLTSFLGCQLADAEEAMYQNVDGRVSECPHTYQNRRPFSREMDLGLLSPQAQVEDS

| Compound | binding mode / inhibitor type from enzyme kinetics (FLT3) | inhibition of FLT3 phosphorylation, in words [1] | impact of the presence of plasma on activity ([2]; human plasma vs RPMI 1640+10% FBS) | inhibition of FLT3 in the presence of human plasma, in words [2] | inhibition of FLT3 phosphorylation and downstream targets, in words [3] | activity in cell viability assay (IC50, FIG. 1A), in words [4] | activity in cell viability assay (IC50, FIG. 1A/5B), in words (Molm14 D835Y cells) | inhibition of FLT3 phosphorylation and downstream signaling, in words [5] | resistance conferred by secondary FLT3 mutations that confer relative resistance to other FLT3 TKIs [6] | concentration with complete elimination of phosphorylation [1] [nM] | concentration with noticeable decrease in phosphorylation [1] [nM] | concentration that fully ablated FLT3 phosphorylation [3] [nM] |
| --- | --- | --- | --- | --- | --- | --- | --- | --- | --- | --- | --- | --- |
| CN(C)CCNc1ncc(F)c(-c2cnc3cc(-c4cnn(C)c4)ccn23)n1 [Compound 1] | type 1 inhibitor; also recorded: type 1 binding mode | decreased level of activity | almost no impact | more potent inhibition of FLT3 in the presence of plasma compared to quizartinib and gilteritinib | potent inhibition of phosphorylation | activity comparable to quizartinib and superior to gilteritinib | retain activity | low nanomolar concentrations were sufficient to inhibit phosphorylation of FLT3 | none of these were capable of conferring significant resistance |  |  |  |
| CC(C)(C)c1cc(NC(=O)Cc2ccc(-c3cnc4cc(-c5cnn(CCN6CCOCC6)c5)ccc4n3)cc2)no1 [Compound 2, N-(5-(tert-butyl)isoxazol-3-yl)-2-(4-(6-(1-(2-morpholinoethyl)-1H-pyrazol-4-yl)quinoxalin-2-yl)phenyl) acetamide] | type 2 inhibitor; also recorded: type 2 binding mode | most potent of all the inhibitors evaluated |  | more potent inhibition of FLT3 in the presence of plasma compared to quizartinib and gilteritinib | somewhat decreased ability to inhibit phosphorylation | activity comparable to quizartinib and superior to gilteritinib | retain activity | low nanomolar concentrations were sufficient to inhibit phosphorylation of FLT3 | none of these were capable of conferring significant resistance | 50 | 10 | 50 |
